One substance from US7122643B2, “Cytostatic lanthanum compounds” (Faustus Forschungs Cie. Translational Cancer Research GmbH, priority 2001, dated 2006) can be followed below.

In experiment [1] the test system is over 50 human tumour cell lines.
Experiment [2] has as its system 13 human tumour xenografts and 10 human tumour cell lines.
Setting [3] is: mean over 13 human tumour xenografts and 10 human tumour cell lines.

The IC50 is the point on the concentration scale where inhibition reaches its midpoint. For orientation: IC90 means the point of the concentration-response curve where the effect stands at 90%.

With “[tris(1,10-phenantrolin)lanthanum(III)]trithiocyanate”, in experiment [1] (over 50 human tumour cell lines, 48-h), the “Cytostatic effectiveness (in words)” value is “Good effectiveness”. In addition, in experiment [1] (some melanoma and kidney cell carcinoma cell lines), the “Activity relative to average of the panel” value is reported as “Above average activities”. The “Cytostatic activity (in words)” value in experiment [2] (13 human tumour xenografts and 10 human tumour cell lines) is “good cytostatic activity”. Besides, the “Activity relative to average of the panel” value in experiment [2] (mammary carcinoma cell lines MCF7, MDA468A, parvicellular bronchial carcinoma cell line DMS 114, one each of melanoma, ovarian, kidney cell and non-parvicellular bronchial carcinoma xenografts) is recorded as “Above average activities”. For the same substance, in experiment [2] (setting [3]), the “Mean IC50” value was 3.60 µg/mL and the “Mean IC90” value came to 12.1 µg/mL. In addition, the Tumour type selectivity entry in experiment [2] (prostate and colorectal carcinoma) is “selectivity for prostate and colorectal carcinoma”. Besides, the IC50 in experiment [2] (read-out: Mean IC50, mean over 13 human tumour xenografts and 10 human tumour cell lines) is 4.21 µM. Besides, the IC90 in experiment [2] (read-out: Mean IC90, mean over 13 human tumour xenografts and 10 human tumour cell lines) came to 14.2 µM.
